Results reported in BindingDB's records for doi:10.1021/jm970110p (Universit&#233, 1998).

Target: Reverse transcriptase/RNaseH (Human immunodeficiency virus 1, UniProt Q72547)
Test: Inhibitory concentration against HIV-1 reverse transcriptase

EC50 [nM] | Compound
42 | CC(C)c1c(Cc2ccccc2)[n]([Au])c(=O)[nH]c1=O [6-Benzyl-5-isopropyl-1-aurus-1H-pyrimidine-2,4-dione]
210 | CCc1c(Cc2ccccc2)[n]([Au])c(=O)[nH]c1=O [6-Benzyl-5-ethyl-1-aurus-1H-pyrimidine-2,4-dione]
